Consider two substances from US10940201B2, “Nucleic acid derivative having immunostimulatory activity” (Shionogi & Co., Ltd., priority 2015, dated 2021).

The subject of the assay is TRP2-specific CTL. The assay is described as follows: CTL inducibility of TRP2 peptide vaccine with adjuvant (tetramer staining). It is filed as in vivo, C57BL/6JJcl mice. On the procedure: C57BL/6JJcl mice (6 to 8 weeks old) were purchased from CLEA Japan, Inc.
an adjuvant of the present invention or the well-known CpG ODN
The specific immunity was induced by vaccinating a mouse twice at 7 days intervals. Each vaccine was that 100 μg of TRP2 peptide, and 1.57 or 4.71 nmol of an adjuvant of the present invention or well-known CpG ODN, were dissolved in 1×PBS. 100 μL of the vaccine was administered subcutaneous injection on the flank of a mouse.
100 μL of the emulsion vaccine was administered subcutaneous injection on the flank of a mouse twice at 7 days intervals.
On 7 days after second vaccination, the blood was collected, red blood cells was removed by BD Pharm Lyse (BD pharmingen), and the white blood cells were suspended in FACS buffer (1% fetal bovine serum, 2 mM PBS with EDTA). Anti-mouse CD16/32 monoclonal antibody (BioXcell) was added thereto, and Fc receptor blocking was carried out at 4° C. for 30 minutes. […] Then, staining was carried out with DAPI (Invitrogen) and the cells were washed twice with FACS buffer. It was resuspended in FACS buffer and analyzed by FACS verse Flow Cytometer (BD bioscience) and FAC Suite software (BD bioscience). For analysis, after DAPI negative fraction was gated, white blood cells fraction were provided using forward and side-way scattering as indicators. In the white blood cells fraction, both positive cells of Alexa 647-CD8 and PE-H-2Kb Tetramer were defined as CTLs. CTL ratio in white blood cells was used for evaluation.
After calculation of the average CTL inducibility of each group per experiment, the ratio against average value of CTL inducibility of ssCpG ODN, ODN1826 (SEQ-1) or ODN2006 (SEQ-49) as a control was calculated.
In the case of an adjuvant comprising ODN1826 (Average of CTL inducibility of the adjuvant group)/(Average of CTL inducibility of the ODN1826 group)=the ratio against average value In the case of an adjuvant comprising ODN2006 (Average of CTL inducibility of the adjuvant group)/(Average of CTL inducibility of the ODN2006 group)=the ratio against average value
CTL inducibility of each adjuvant was shown when CTL inducibility of ssCpG ODN was taken as 1, so the bigger value means the higher CTL inducibility.

Amph1826 [SEQ-2]: the “Ratio of average value of antigen-specific CTL” value (“Ratio … of antigen-specific CTL” below) (Table 34, 1.57 nmol/head, ODN1826 (SEQ-1) group = 1) was found to be 1.68; the “Ratio … of antigen-specific CTL” value (Table 36, 1.57 nmol/head (Montanide 100 μL), ODN1826 (SEQ-1) group = 1) is reported as 3.23; the “Ratio … of antigen-specific CTL” value (Table 37, 1.57 nmol/head, ODN1826 (SEQ-1) group = 1) is recorded as 3.11. Moreover, the “CTL inducibility (in words)” value (adjuvants comprising ODN1826) was “higher CTL inducibility than ODN1826”.

ODN2006 [SEQ-49]: the “Ratio … of antigen-specific CTL” value (Table 38, 4.71 nmol/head, ODN2006 (SEQ-49) group = 1) stood at 1.00; the “Ratio … of antigen-specific CTL” value (Table 39, 4.71 nmol/head, ODN2006 (SEQ-49) group = 1) turned out to be 1.00; the “Ratio … of antigen-specific CTL” value (Table 40, 4.71 nmol, ODN2006 (SEQ-49) group = 1) worked out at 1.00; the “Ratio … of antigen-specific CTL” value (Table 41, 4.71 nmol, ODN2006 (SEQ-49) group = 1) was 1.00; the “Ratio … of antigen-specific CTL” value (Table 42, 4.71 nmol, ODN2006 (SEQ-49) group = 1) is on record as 1.00; the “Ratio … of antigen-specific CTL” value (Table 43, 4.71 nmol, ODN2006 (SEQ-49) group = 1) came to 1.00. Also, the “Ratio … of antigen-specific CTL” value (Table 44, 4.71 nmol, ODN2006 (SEQ-49) group = 1) was 1.00; the “Ratio … of antigen-specific CTL” value (Table 45, 4.71 nmol, ODN2006 (SEQ-49) group = 1) came to 1.00; the “Ratio … of antigen-specific CTL” value (Table 46, 4.71 nmol, ODN2006 (SEQ-49) group = 1) is given as 1.00; the “Ratio … of antigen-specific CTL” value (Table 47, 4.71 nmol, ODN2006 (SEQ-49) group = 1) is given as 1.00; the “Ratio … of antigen-specific CTL” value (Table 48, 4.71 nmol, ODN2006 (SEQ-49) group = 1) came out at 1.00; the “Ratio … of antigen-specific CTL” value (Table 49, 4.71 nmol, ODN2006 (SEQ-49) group = 1) was 1.00. The “Ratio … of antigen-specific CTL” value is listed as 1.00 (Table 50, 4.71 nmol, ODN2006 (SEQ-49) group = 1); 1.00 (Table 51, 4.71 nmol, ODN2006 (SEQ-49) group = 1); 1.00 (Table 52, 4.71 nmol, ODN2006 (SEQ-49) group = 1); 1.00 (Table 53, 4.71 nmol, ODN2006 (SEQ-49) group = 1); 1.00 (Table 54, 4.71 nmol, ODN2006 (SEQ-49) group = 1); 1.00 (Table 55, 4.71 nmol, ODN2006 (SEQ-49) group = 1). Also, the “Ratio … of antigen-specific CTL” value worked out at 1.00 (Table 57, 4.71 nmol, ODN2006 (SEQ-49) group = 1); 1.00 (Table 58, 4.71 nmol, ODN2006 (SEQ-49) group = 1); 1.00 (Table 59, 4.71 nmol, ODN2006 (SEQ-49) group = 1); 1.00 (Table 60, 4.71 nmol, ODN2006 (SEQ-49) group = 1); 1.00 (Table 61, 4.71 nmol, ODN2006 (SEQ-49) group = 1); 1.00 (Table 62, 4.71 nmol, ODN2006 (SEQ-49) group = 1). The “Ratio … of antigen-specific CTL” value is, setting by setting: (Table 63, 4.71 nmol, ODN2006 (SEQ-49) group = 1) 1.00; (Table 67, 4.71 nmol, ODN2006 (SEQ-49) group = 1) 1.00; (Table 68, 4.71 nmol, ODN2006 (SEQ-49) group = 1) 1.00. Further, for the setting “Table 64, 4.71 nmol, ODN2006 (SEQ-49) group = 1”, the “Ratio of average value of antigen specific CTL” value is listed as 1.00.
